Assay results published in patent US20140235643A1, “NOVEL QUINOXALINE INHIBITORS OF PI3K” (GILEAD CALISTOGA LLC, priority 2011, published 2014).

Columns and labels:
[1] = molecular target: T1, PI3Kα (p110α/p85α) (Homo sapiens, UniProt P42336); assay: PI3K biochemical enzyme assay (Adapta universal kinase assay), p110 alpha/p85 alpha; settings: for inhibition at 1 µM / inhibition at 10 µM: read-out: PI3Kα % inhib; for IC50: Table 2, PI3k biochemical assays, read-out: p110α/p85α IC50
T1 construct: purchased Invitrogen
Experimental: (§1) This example describes a method of obtaining in vitro activity data concerning the effect of compounds of on various PI3K isoforms. The effect of compounds on the kinase activity of Class I PI3Ks was measured at Invitrogen by using the Adapta® universal kinase assay. It was a homogenous, fluorescent based immunoassay for the detection of ADP produced by the kinase reaction. This assay can be divided into two phases: a kinase reaction phase, and an ADP detection phase. In the kinase reaction phase, all components required for the kinase reaction were added to the well, and the reaction was allowed to incubate for 60 minutes. After the reaction, a detection solution consisting of a europium labeled anti-ADP antibody, an Alexa Fluor® 647 labeled ADP tracer, and EDTA (to stop the kinase reaction) was added to the assay well. ADP formed by the kinase reaction (in the absence of an inhibitor) displaced the Alexa Fluor® 647 labeled ADP tracer from the antibody, resulting in a decrease in the TR-FRET signal.
(§2) ADP formation was determined by calculating the emission ratio from the assay well. The emission ratio was calculated by dividing the intensity of the tracer (acceptor) emission by the intensity of the Eu (donor) emission at 615 nm as shown in the equation below.
(§3) The Test Compounds were screened in 1% DMSO (final) in the well. All Substrate/Kinase Mixtures were diluted to a 2× working concentration in the appropriate Kinase Buffer as described below for the individual kinase:
The 2× p110 alpha/p85 alpha/PIP2:PS mixture was prepared in 50 mM HEPES pH 7.5, 100 mM NaCl, 0.03% CHAPS, 3 mM mgCl2, 1 mM EGTA. The final 10 μL Kinase Reaction consisted of 0.3-1.5 ng p110 alpha/p85 alpha and 50 μM PIP2:PS in 32.5 mM HEPES pH 7.5, 50 mM NaCl, 0.015% CHAPS, 1.5 mM mgCl2, 0.5 mM EGTA. After the 1 hour Kinase Reaction incubation, 5 μL of Detection Mix was added.
(§4) The Detection mix consisted of EDTA (30 mM), Eu-anti-ADP antibody (30 nM) and ADP tracer. All ATP Solutions were diluted to a 4× working concentration in water and used at the Km apparent concentrations for each individual kinase.

[2] = molecular target: T2, PI3Kγ (p110 gamma) (Homo sapiens, UniProt P48736); assay: PI3K biochemical enzyme assay (Adapta universal kinase assay), p110 gamma; settings: for IC50: Table 2, PI3k biochemical assays, read-out: p120γ IC50
T2 construct: purchased Invitrogen
T2 sequence (P48736 whole entry): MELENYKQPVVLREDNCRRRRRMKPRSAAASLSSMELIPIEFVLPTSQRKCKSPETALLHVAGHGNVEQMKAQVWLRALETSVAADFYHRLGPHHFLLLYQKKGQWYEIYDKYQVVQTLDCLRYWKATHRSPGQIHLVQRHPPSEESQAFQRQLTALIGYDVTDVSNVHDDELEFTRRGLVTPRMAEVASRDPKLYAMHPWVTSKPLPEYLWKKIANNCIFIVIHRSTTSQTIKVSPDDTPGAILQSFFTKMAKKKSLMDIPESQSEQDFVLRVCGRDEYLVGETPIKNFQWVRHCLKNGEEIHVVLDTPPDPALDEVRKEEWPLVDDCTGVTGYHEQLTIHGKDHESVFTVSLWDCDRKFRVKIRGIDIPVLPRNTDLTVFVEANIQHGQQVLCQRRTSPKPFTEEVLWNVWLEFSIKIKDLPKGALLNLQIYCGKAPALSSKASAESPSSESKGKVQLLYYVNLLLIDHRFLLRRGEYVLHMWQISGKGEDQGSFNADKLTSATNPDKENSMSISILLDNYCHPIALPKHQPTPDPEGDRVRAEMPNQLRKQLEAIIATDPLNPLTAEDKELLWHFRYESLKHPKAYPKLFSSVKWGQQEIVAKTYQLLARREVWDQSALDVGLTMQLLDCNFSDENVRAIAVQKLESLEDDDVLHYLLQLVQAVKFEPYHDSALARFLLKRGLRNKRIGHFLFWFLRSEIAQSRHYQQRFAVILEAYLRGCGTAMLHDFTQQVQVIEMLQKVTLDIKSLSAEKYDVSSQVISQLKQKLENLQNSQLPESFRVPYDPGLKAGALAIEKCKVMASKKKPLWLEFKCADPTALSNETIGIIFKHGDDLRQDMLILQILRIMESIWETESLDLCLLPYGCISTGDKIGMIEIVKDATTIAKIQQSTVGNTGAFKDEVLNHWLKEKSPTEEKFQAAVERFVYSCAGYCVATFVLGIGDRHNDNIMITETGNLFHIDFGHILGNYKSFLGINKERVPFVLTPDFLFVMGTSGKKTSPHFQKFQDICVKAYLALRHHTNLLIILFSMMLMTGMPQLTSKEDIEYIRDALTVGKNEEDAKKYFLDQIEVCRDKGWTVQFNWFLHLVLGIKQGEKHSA
Experimental: as §1, §2, §3
The 2× p110 gamma/PIP2:PS mixture was prepared in 50 mM HEPES pH 7.5, 1 mM EGTA, 3 mM mgCl2. The final […] Kinase Reaction consisted of 3.5-26 ng p110 gamma and 50 μM PIP2:PS in 32.5 mM HEPES pH 7.5, 0.5 mM EGTA, 1.5 mM mgCl2. After the 1 hour Kinase Reaction incubation, 5 μL of Detection Mix was added.
as §4

[3] = molecular target: T3, PI3Kα (Mus musculus, UniProt P42337); assay: PI3Kα-dependent cell-based assay: PDGF-BB mediated AKT phosphorylation in Swiss-3T3 cells; settings: PDGF-BB-induced AKT phosphorylation, Swiss-3T3 fibroblasts
T3 construct: endogenous in cells; host or cells: Swiss-3T3 fibroblasts (ATCC)
T3 sequence (P42337 whole entry): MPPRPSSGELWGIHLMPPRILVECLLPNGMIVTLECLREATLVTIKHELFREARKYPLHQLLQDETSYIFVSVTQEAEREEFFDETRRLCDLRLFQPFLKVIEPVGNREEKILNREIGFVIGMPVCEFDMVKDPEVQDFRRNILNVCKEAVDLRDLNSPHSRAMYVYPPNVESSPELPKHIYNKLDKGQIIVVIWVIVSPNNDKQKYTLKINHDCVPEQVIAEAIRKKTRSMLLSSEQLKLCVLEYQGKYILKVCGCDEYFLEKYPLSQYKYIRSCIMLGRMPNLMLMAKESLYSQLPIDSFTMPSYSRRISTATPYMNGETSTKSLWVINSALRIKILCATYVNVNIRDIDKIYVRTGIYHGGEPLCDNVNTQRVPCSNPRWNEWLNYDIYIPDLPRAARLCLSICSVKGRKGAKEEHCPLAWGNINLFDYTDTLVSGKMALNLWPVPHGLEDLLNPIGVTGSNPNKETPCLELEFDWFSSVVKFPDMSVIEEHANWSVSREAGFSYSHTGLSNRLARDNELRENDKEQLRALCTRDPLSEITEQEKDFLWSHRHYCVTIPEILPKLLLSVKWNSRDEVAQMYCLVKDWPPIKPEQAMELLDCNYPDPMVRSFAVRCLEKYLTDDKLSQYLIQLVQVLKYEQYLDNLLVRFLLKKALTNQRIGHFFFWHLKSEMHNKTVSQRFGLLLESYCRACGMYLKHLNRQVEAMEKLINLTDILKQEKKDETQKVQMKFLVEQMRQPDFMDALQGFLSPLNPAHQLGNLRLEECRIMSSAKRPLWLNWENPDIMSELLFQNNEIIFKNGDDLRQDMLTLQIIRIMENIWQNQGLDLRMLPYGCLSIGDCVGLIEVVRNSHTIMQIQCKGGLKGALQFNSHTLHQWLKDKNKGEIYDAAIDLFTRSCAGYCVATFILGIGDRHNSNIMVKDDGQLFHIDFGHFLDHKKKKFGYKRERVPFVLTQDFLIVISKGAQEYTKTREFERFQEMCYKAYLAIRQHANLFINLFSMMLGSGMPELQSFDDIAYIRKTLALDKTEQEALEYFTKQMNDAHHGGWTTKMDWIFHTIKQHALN
T3 sequence (P26450 whole entry partner): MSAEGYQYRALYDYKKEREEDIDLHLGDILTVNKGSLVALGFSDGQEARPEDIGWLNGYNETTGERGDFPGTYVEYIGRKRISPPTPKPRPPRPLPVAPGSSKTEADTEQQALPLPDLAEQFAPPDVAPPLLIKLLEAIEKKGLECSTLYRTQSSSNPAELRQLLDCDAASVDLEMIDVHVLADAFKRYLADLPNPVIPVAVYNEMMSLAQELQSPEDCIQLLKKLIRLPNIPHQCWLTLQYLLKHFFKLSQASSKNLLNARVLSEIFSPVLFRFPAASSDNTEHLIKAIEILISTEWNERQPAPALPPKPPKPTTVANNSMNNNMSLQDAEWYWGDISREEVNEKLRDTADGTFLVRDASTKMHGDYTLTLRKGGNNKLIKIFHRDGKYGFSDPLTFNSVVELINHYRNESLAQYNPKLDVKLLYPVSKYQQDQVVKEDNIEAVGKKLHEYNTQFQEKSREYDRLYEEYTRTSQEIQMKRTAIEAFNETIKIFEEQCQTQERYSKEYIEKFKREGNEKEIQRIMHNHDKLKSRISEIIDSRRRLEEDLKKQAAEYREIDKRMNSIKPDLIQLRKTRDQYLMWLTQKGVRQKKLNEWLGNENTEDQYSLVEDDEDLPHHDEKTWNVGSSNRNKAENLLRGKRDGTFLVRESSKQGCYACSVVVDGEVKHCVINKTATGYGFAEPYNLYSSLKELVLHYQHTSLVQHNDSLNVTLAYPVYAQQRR
Experimental: (§5) PDGF-BB-induced AKT phosphorylation in Swiss-3T3 fibroblasts is mediated by p110α. C5a-induced AKT phosphorylation in RAW-264 murine macrophages is mediated exclusively by p110γ.
PI3Kα-Dependent Cell-Based Assay: PDGF-BB Mediated AKT Phosphorylation in Swiss-3T3 Cells
Swiss-3T3 fibroblasts (American Type Culture Collection) were cultured with DMEM containing 10% fetal bovine serum and the antibiotics penicillin and streptomycin. Cells were seeded on a 96-well Tissue Culture Plate at 25,000 cells/well and allowed to reach at least 90% confluency. The cells were starved for 2 to 12 hr in 0.1% FBS containing medium and then were pretreated with inhibitors or DMSO for 2 hr. The cells were stimulated for 15 min with 10 ng/ml PDGF-BB (Cell Signaling Technology) at 37° C. in 5% CO2. The culture medium was removed and cells were fixed for 20 min at room temperature by addition of 100 μl of 4% cell fixing buffer to each well. AKT phosphorylation and total AKT was detected by ELISA.
(§6) Detection of Phospho-Ser-473 AKT and Total AKT by ELISA
(§7) The fixed cells were washed twice with 150 μl of wash buffer (WB) and quenched by incubating with 100 μl of Quenching Buffer for 20 min at room temperature. Cells were washed once with 150 μl WB and blocked by incubating with 100 μl of Blocking Buffer for 1 hr at room temperature. Cells were incubated with 50 μl of primary antibody diluted in Blocking Buffer, either phospho-Ser-473 AKT specific (1:150 dilution) or total-AKT antibody (1:200 dilution), to each specific well. The negative control wells contained 50 μl of Blocking Buffer. Plates were sealed with plate sealing film and incubated overnight at 4° C. Cells were washed twice with 150 μl WB followed by addition of 50 μl per well of DELFIA secondary antibody (50 ng/well, diluted in DELFIA Assay Buffer). After 2 hr incubation at room temperature, cells were washed 4 times with 150 μl of Europium Wash Solution followed by addition of 100 μl of DELFIA Enhancing Solution to each well. Plates were incubated for 5 min in the dark and fluorescent signal was read using SpectraMax M5™ (Molecular Devices). Total AKT level was determined to verify equal cell number per well. The average background fluorescence values from wells that received vehicle control in the absence of PDGF-BB or C5a were subtracted from all the values of experimental conditions. Fluorescence values corresponding to phosphorylated AKT from wells that received PDGF-BB or C5a were normalized to 100% and compound effect was plotted as % change relative to the vehicle control.

[4] = molecular target: T4, PI3Kγ (Mus musculus, UniProt Q9JHG7); assay: PI3Kγ-dependent cell-based assay: C5a-mediated AKT phosphorylation in RAW-264 cells; set-up: species or system murine; settings: C5a-induced AKT phosphorylation, RAW-264 macrophages
T4 construct: endogenous in cells; host or cells: RAW-264 macrophage cells (ATCC)
T4 sequence (Q9JHG7 whole entry): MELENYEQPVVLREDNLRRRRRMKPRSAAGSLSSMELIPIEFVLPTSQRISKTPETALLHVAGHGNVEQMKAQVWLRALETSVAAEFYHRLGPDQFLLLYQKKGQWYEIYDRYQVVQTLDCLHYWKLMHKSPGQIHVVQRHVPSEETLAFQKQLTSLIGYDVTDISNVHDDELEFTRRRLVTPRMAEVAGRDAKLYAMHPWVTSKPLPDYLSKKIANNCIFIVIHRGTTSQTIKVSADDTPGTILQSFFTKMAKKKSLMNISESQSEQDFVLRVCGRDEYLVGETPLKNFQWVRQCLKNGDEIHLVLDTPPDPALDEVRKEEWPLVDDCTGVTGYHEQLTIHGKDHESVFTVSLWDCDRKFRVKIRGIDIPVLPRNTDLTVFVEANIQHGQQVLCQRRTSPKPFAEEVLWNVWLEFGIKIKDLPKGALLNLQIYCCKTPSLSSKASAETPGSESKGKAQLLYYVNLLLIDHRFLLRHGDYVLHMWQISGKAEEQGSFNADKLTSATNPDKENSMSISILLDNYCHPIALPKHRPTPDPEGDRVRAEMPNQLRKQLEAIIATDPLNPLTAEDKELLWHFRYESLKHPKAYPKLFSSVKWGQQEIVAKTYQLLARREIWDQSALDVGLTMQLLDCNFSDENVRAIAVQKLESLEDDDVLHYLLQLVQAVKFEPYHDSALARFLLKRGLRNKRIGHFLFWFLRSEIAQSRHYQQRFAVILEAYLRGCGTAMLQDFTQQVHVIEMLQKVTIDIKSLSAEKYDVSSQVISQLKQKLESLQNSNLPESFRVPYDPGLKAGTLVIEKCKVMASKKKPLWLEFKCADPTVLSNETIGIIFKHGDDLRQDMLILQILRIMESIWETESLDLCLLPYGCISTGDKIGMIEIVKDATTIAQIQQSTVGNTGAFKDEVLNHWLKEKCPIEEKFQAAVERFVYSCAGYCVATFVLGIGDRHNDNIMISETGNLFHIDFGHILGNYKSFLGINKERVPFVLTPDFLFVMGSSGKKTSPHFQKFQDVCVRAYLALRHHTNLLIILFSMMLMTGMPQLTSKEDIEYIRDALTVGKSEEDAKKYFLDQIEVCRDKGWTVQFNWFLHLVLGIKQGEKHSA
Experimental: as §5
PI3Kγ-Dependent Cell-Based Assay: C5a-Mediated AKT Phosphorylation in RAW-264 Cells
RAW-264 macrophage cells (American Type Culture Collection) were cultured with Dulbecco's modified Eagle medium (DMEM) containing 10% fetal bovine serum and the antibiotics penicillin and streptomycin. Cells were seeded on a 96-well Tissue Culture Plate at 100,000 to 200,000 cells/well the day before the experiment. Next day, cells were starved for 2 hr in 0.1% FBS containing medium. The cells were pretreated with inhibitors or DMSO for 2 hr and stimulated for 5 min with 75 ng/ml C5a (R&D) at 37° C. in 5% CO2. The culture medium was removed and cells were fixed for 20 min at room temperature by addition of 100 μl of 4% cell fixing buffer to each well. AKT phosphorylation and total AKT was detected by ELISA.
as §6, §7

| inhibition at 1 µM [1] | inhibition at 10 µM [1] | IC50 [1] | inhibition at 1 µM ([2]; read-out: PI3Kγ % inhib) | inhibition at 10 µM ([2]; read-out: PI3Kγ % inhib) | IC50 [2] | EC50 [3] | EC50 [4] | inhibition at 0.1 µM ([2]; 0.1 μM, read-out: PI3Kγ % inhib) | Structure (SMILES) |
| --- | --- | --- | --- | --- | --- | --- | --- | --- | --- |
| 41% | 97% | 0.404 µM | 79% | 98% | 0.002 µM | 14.3 µM | 0.628 µM |  | Cc1cccc2nc(C(C)Nc3nc(N)nc4[nH]cnc34)c(-c3ccc(F)cc3)nc12 (centres unmarked) [Compound Q5] |
|  | 65% | > 10 µM | 51% | 94% | 2.07 µM | > 20 µM | > 20 µM |  | Cc1cccc(-c2nc3ccccc3nc2C(C)Nc2ncnc3[nH]cnc23)c1 (centres unmarked) [Compound Q3] |
| 18% | 89% | 6.92 µM | 78% | 99% | 0.147 µM | > 20 µM | 4.62 µM |  | CC(Nc1ncnc2[nH]cnc12)c1nc2ccccc2nc1-c1ccccc1 (centres unmarked) [Compound Q1] |
| 18% | 92% | 2.59 µM | 84% | 99% | 0.008 µM | 17.7 µM | 0.344 µM | 36% | Cc1cccc2nc(C(C)Nc3nc(N)nc4[nH]cnc34)c(-c3ccccc3)nc12 (centres unmarked) [Compound Q4] |

The next lines start with the compound.

| Structure (SMILES) | inhibition at 1 µM [1] | inhibition at 10 µM [1] | IC50 [1] | inhibition at 1 µM ([2]; read-out: PI3Kγ % inhib) | inhibition at 10 µM ([2]; read-out: PI3Kγ % inhib) | IC50 [2] | EC50 [3] | EC50 [4] | inhibition at 0.1 µM ([2]; 0.1 μM, read-out: PI3Kγ % inhib) |
| --- | --- | --- | --- | --- | --- | --- | --- | --- | --- |
| CC(Nc1ncnc2[nH]cnc12)c1nc2ccccc2nc1-c1cc(F)cc(F)c1 (centres unmarked) [Compound Q2, N-{1-[3-(3,5-difluorophenyl)quinoxalin-2-yl]ethyl}-9H-purin-6-amine] |  | 47% | > 10 µM | 42% | 86% | 5.79 µM | > 20 µM | > 20 µM |  |
| CCC(Nc1ncnc2[nH]cnc12)c1nc2ccccc2nc1-c1ccccc1 (centres unmarked) [Compound Q12] |  | 77% | > 10 µM | 44% | 96% | 0.762 µM | > 20 µM | > 20 µM |  |
| CCC(Nc1ncnc2[nH]cnc12)c1nc2cccc(F)c2nc1-c1ccccc1 (centres unmarked) [Compound Q9] |  | 72% | > 10 µM | 37% | 95% | 2.15 µM | > 20 µM | > 20 µM |  |
